# Experimental data: US20050187240A1, “Aaptamine and isoaaptamine and structural modifications thereof” (The Arizona Board of Regents, Acting for and on behalf of …, priority 2004, published 2005)
# Counter-ions that a name gives are not always drawn. Like-named read-outs stand apart in the source and are kept apart here.
# Experiments:
# [1] = system: prostrate DU-145; experiment: Cancer cell growth inhibition, prostate DU-145; format: cell-based, human; settings: Homo sapiens
# Experimental: (§1) Biology The cancer cell growth inhibitory properties were examined using the murine P388 lymphocytic leukemia cell line and a selection of human cancer cell lines.
# (§2) All of the synthetic products were evaluated against a minipanel of human cancer cell lines, the murine P388 lymphocytic leukemia cell line and a selection of microorganisms.
# [2] = system: Neisseria gonorrhoeae; experiment: Broth microdilution susceptibility assay, Neisseria gonorrhoeae; format: cell-based
# [3] = system: murine P388 lymphocytic leukemia cell line; experiment: Cancer cell growth inhibition, murine P388 lymphocytic leukemia cell line; format: cell-based; settings: for IC50: Mus musculus
# Outline: (§3)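 Growth inhibition in murine P388 leukemia and human cancer cell line panels (Arizona State University minipanel and NCI 60-cell screen).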
# [4] = system: Staphylococcus aureus; experiment: Broth microdilution susceptibility assay, Staphylococcus aureus; format: cell-based
# [5] = system: lung NCI-H460; experiment: Cancer cell growth inhibition, lung NCI-H460; format: cell-based, human; settings: Homo sapiens
# Outline: as §3
# [6] = system: Enterococcus faecalis; experiment: Broth microdilution susceptibility assay, Enterococcus faecalis; format: cell-based
# [7] = system: CNS SF-268; experiment: Cancer cell growth inhibition, CNS SF-268; format: cell-based, human; settings: Homo sapiens
# Experimental: as §1, §2
# [8] = system: Streptococcus pneumoniae; experiment: Broth microdilution susceptibility assay, Streptococcus pneumoniae; format: cell-based
# [9] = system: melanoma SK-MEL-5; experiment: Cancer cell growth inhibition, melanoma SK-MEL-5; format: cell-based, human; settings: Table 1
# Description: (§4) (Boyd, M. R., Cancer: Principles and Practices of Oncology Updates; […], et al., Eds; Lippincott: Philadelphia, 1989, Vol. 10, No. 3, pp. 1-12; Boyd, et al., Drug Development Research 1995, 34, 91-109; Boyd, M. R., et al. Cytotoxic Anticancer Drugs: Models and Concepts for Drug Discovery and Development; Valeriote, A., et al., Eds, Kluwer Academic Publishers: Amsterdam, 1992, pp. 11-34.)
# [10] = system: CNS SF-295; experiment: Cancer cell growth inhibition, CNS SF-295; format: cell-based, human; settings: Table 1
# Description: as §4
# [11] = system: colon KM 20L2; experiment: Cancer cell growth inhibition, colon KM 20L2; format: cell-based, human; settings: Homo sapiens
# Outline: as §3
# [12] = system: breast MCF-7; experiment: Cancer cell growth inhibition, breast MCF-7; format: cell-based, human; settings: Homo sapiens
# Experimental: as §1, §2
# [13] = system: pancreas BXPC-3; experiment: Cancer cell growth inhibition, pancreas BXPC-3; format: cell-based, human; settings: Homo sapiens
# Experimental: as §1, §2
# [14] = system: Candida albicans; experiment: Broth microdilution susceptibility assay, Candida albicans; format: cell-based
# [15] = system: ovary OVCAR-3; experiment: Cancer cell growth inhibition, ovary OVCAR-3; format: cell-based, human; settings: Table 1
# Description: as §4
# [16] = Stability of the substance (observation); format: physicochemical
# Description: When newly isolated, isoaaptamine (2) appears as a yellow colored powder that rapidly changes to dark green and finally brown or black, presumably due to air oxidation. […] For that purpose, isoaaptamine (2) was first phosphorylated with dibenzylphosphate (Pettit, G. R. et al., Anti-Cancer Drug Design 2000, 15, 203-216; Silverberg, L. J., Tetrahedron Lett. 1996, 37, 771-774). […] Scheme 2 below illustrates the aforementioned synthesis method. [drawing 17] Biology
# [17] = biological target: PKC alpha (Homo sapiens, UniProt P17252); experiment: Inhibition of [3H]phorbol 12,13-dibutyrate binding to PKC alpha; settings: 30 μM compound; read-out: inhibition of [3H]phorbol 12,13-dibutyrate binding to PKC alpha
# Experimental: Isoaaptamine (2) and derivatives 4, 5, 7, 8, and 14-18 were evaluated as ligands for PKC, based on the initial report of activity for isoaaptamine (Patil, et al., PCT Int. Appl. WO 95/0584 March 1995). Activity was measured at 30 μM compound using inhibition of [^3H-20]phorbol 12,13-dibutyrate binding to PKC alpha as described previously (Kazanietz, M. G., et al., Molecular Pharmacol., 1993, 44, 298). Assays were carried out with triplicate measurements in either single or triplicate experiments, depending on the compound.
# Compounds 4, 5, 9a-c, and 10a-d were evaluated as ligands for PKC, based on the initial report of activity for isoaaptamine. Activity was measured at 30 μM compound using inhibition of [20-^3H]phorbol 12,13-dibutyrate binding to PKC alpha as described previously (Kazanietz, M. G., et al., Characterization of Ligand and Substrate Specificity for the Calcium-Dependent and Calcium-Independent Protein Kinase C Isoenzymes, Molecular Pharmacol. 1993, 44, 298-307). Assays were carried out with triplicate measurement in either single or triplicate experiments, depending on the compound. Inhibition by 9a and 9b was 6.4% and 9.2%, respectively. That by 10a, 10b, and 10d was 11.8%, 12.6%, and 16.0%, respectively. That by other derivatives was 5% or less. We conclude that these compounds show only very weak activity as ligands for PKC.
# [18] = system: Stenotrophomonas maltophilia; experiment: Broth microdilution susceptibility assay, Stenotrophomonas maltophilia; format: cell-based; settings: for MIC: read-out: Range of minimum inhibitory concentration
# [19] = system: renal A498; experiment: Cancer cell growth inhibition, renal A498; format: cell-based, human; settings: Table 1
# Description: as §4
# [20] = system: Micrococcus luteus; experiment: Broth microdilution susceptibility assay, Micrococcus luteus; format: cell-based
# [21] = system: tubulin; experiment: Tubulin polymerization (assembly) inhibition; format: biochemical; settings: read-out: IC50 for inhibition of extent of tubulin assembly
# Experimental: Only minimal inhibitory activity was observed. While compounds 15 and 8 did inhibit the rate of polymerization by over 50% at 40 μM (the highest concentration examined), an IC50 value for inhibition of assembly extent was obtained only for compound 18. […] Thus, it seems unlikely that the cytotoxic mechanism for these aaptamine analogs derives from an interaction with tubulin.
# A number of the aaptamine derivatives whose synthesis is described here were examined for potential effects on tubulin assembly. These were compounds 2, 4, 5, 9a-c, and 10a-d. […] For comparison, in experiments performed contemporaneously, the potent colchicine site drug combretastatin A-4 yielded an IC50 value of about 2 μM.
# [22] = system: Enterobacter cloacae; experiment: Broth microdilution susceptibility assay, Enterobacter cloacae; format: cell-based
# [23] = system: Escherichia coli; experiment: Broth microdilution susceptibility assay, Escherichia coli; format: cell-based
# [24] = system: Cryptococcus neoformans; experiment: Broth microdilution susceptibility assay, Cryptococcus neoformans; format: cell-based
# [25] = system: murine P388 lymphocytic leukemia cell line and a selection of human cancer cell lines; experiment: Cancer cell growth inhibition, P388 and human cancer cell line panel (summary in words); format: cell-based
# Description: as §1
# [26] = Antimicrobial activity in the presence of human serum; format: cell-based
# Description: The antimicrobial activity of phenols 15 and 18 in the presence of human serum was also investigated.
# [27] = Table 3, prostrate DU-145, read-out: Cancer cell growth inhibitory ED50
# [28] = Table 2, read-out: Range of minimum inhibitory concentration
# [29] = P388, Table 3, leukemia P-388, read-out: Cancer cell growth inhibitory ED50
# [30] = Table 3, lung NCI-H460, read-out: Cancer cell growth inhibitory ED50
# [31] = Table 3, CNS SF-268, read-out: Cancer cell growth inhibitory ED50
# [32] = Table 3, colon KM 20L2, read-out: Cancer cell growth inhibitory ED50
# [33] = MCF7, Table 3, breast MCF-7, read-out: Cancer cell growth inhibitory ED50
# [34] = Table 3, pancreas BXPC-3, read-out: Cancer cell growth inhibitory ED50
# [35] = Table 4, read-out: Range of minimum inhibitory concentration
# [36] = Table 4, Stenotrophomonas maltophil
# [37] = read-out: Range of minimum inhibitory concentration
compound,measurement,setting,value
"COc1cc2ccnc3c2c(c1O)N(C)C=C3 [Compound 2, isoaaptamine]",IC50,[1]; [27],3.3 µg/mL
same,MIC,[2]; [28],< 0.5 µg/mL
same,IC50,[3]; [29],1.6 µg/mL
same,IC50,"[3]; Table 1, leukemia murine P388, read-out: Cancer Cell Line Results ED50",0.28 µg/mL
same,P388 ED50,[3]; murine P388,0.28 µg/mL
same,MIC,[4]; [28],16 to 32 µg/mL
same,IC50,"[5]; Table 1, lung NCI-H460, read-out: Cancer Cell Line Results ED50",2.4 µg/mL
same,IC50,[5]; [30],2.9 µg/mL
same,MIC,[6]; [28],32 to 64 µg/mL
same,IC50,[7]; [31],2.2 µg/mL
same,MIC,[8]; [28],8 to 32 µg/mL
same,Cancer Cell Line Results ED50,[9],1.60 µg/mL
same,Cancer Cell Line Results ED50,[10],2.60 µg/mL
same,IC50,"[11]; Table 1, colon KM 20L2, read-out: Cancer Cell Line Results ED50",2.3 µg/mL
same,IC50,[11]; [32],> 10 µg/mL
same,IC50,[12]; [33],2.2 µg/mL
same,IC50,[13]; [34],4.1 µg/mL
same,Range of minimum inhibitory concentration,[14]; Table 2,* (no inhibition at 64 ug/ml)
same,Cancer Cell Line Results ED50,[15],1.20 µg/mL
same,stability,[16],relatively unstable
same,inhibition at 30 µM,[17],13%
same,Range of minimum inhibitory concentration,[18]; Table 2,* (no inhibition at 64 ug/ml)
same,Cancer Cell Line Results ED50,[19],2.20 µg/mL
same,MIC,[20]; [28],32 to 64 µg/mL
same,IC50,"[21]; b138 series, 20 minutes incubation at 30° C.",31 µM
same,Range of minimum inhibitory concentration,[22]; Table 2,* (no inhibition at 64 ug/ml)
same,Range of minimum inhibitory concentration,[23]; Table 2,* (no inhibition at 64 ug/ml)
same,MIC,[24]; [28],64 µg/mL
"COc1cc2ccnc3c2c(c1OC)N(C)C=C3 [Compound 14, 1-Methyl-8,9-dimethoxy-1H-benzo[de][1,6]naphthyridine trifluoromethane-sulfonate]",MIC,[2]; [35],> 64 µg/mL
same,MIC,[4]; [35],> 64 µg/mL
same,MIC,[6]; [35],> 64 µg/mL
same,MIC,[8]; [35],64 µg/mL
same,MIC,[14]; [35],> 64 µg/mL
same,MIC,[18]; [36],> 64 µg/mL
same,MIC,[20]; [35],> 64 µg/mL
same,MIC,[22]; [35],> 64 µg/mL
same,MIC,[23]; [35],> 64 µg/mL
same,MIC,[24]; [35],> 64 µg/mL
same,cancer cell growth inhibitory activity,[25],marginal activity
"CN1C=Cc2cc(O)c(O)c3nccc1c23 [Compound 7, 4-Methyl-8,9-dihydroxy-4H-benzo[de][1,6]naphthyridine]",IC50,[1]; [27],> 10 µg/mL
same,MIC,[2]; [35],64 µg/mL
same,IC50,[3]; [29],2.2 µg/mL
same,MIC,[4]; [35],> 64 µg/mL
same,IC50,[5]; [30],> 10 µg/mL
same,MIC,[6]; [35],> 64 µg/mL
same,IC50,[7]; [31],5.6 µg/mL
same,MIC,[8]; [35],> 64 µg/mL
same,IC50,[11]; [32],> 10 µg/mL
same,IC50,[12]; [33],4.1 µg/mL
same,IC50,[13]; [34],> 10 µg/mL
same,MIC,[14]; [35],> 64 µg/mL
same,MIC,[18]; [36],> 64 µg/mL
same,MIC,[20]; [35],> 64 µg/mL
same,MIC,[22]; [35],> 64 µg/mL
same,MIC,[23]; [35],> 64 µg/mL
same,MIC,[24]; [35],> 64 µg/mL
same,cancer cell growth inhibitory activity,[25],marginal activity
"Oc1cc2ccnc3c2c(c1O)NC=C3 [Compound 15, 8,9-Dihydroxy-1H-Benzo[de][1,6]naphthyridine hydrobromide]",IC50,[1]; [27],1.1 µg/mL
same,MIC,[2]; [35],> 0.5 µg/mL
same,IC50,[3]; [29],0.12 µg/mL
same,MIC,[4]; [35],4 to 8 µg/mL
same,IC50,[5]; [30],0.52 µg/mL
same,MIC,[6]; [35],8 to 16 µg/mL
same,IC50,[7]; [31],0.8 µg/mL
same,MIC,[8]; [35],8 µg/mL
same,IC50,[11]; [32],0.3 µg/mL
same,IC50,[12]; [33],0.31 µg/mL
same,minimum inhibitory concentrations in the presence of human serum versus absence of serum,[26],identical or one 2-fold dilution lower
same,IC50,[13]; [34],0.33 µg/mL
same,MIC,[14]; [35],64 µg/mL
same,MIC,[18]; [36],32 µg/mL
same,MIC,[20]; [35],4 µg/mL
same,MIC,[22]; [35],> 64 µg/mL
same,MIC,[23]; [35],16 to 64 µg/mL
same,MIC,[24]; [35],32 µg/mL
"COc1cc2ccnc3c2c(c1O)NC=C3 [Compound 18, 9-Demethylaaptamine hydrobromide]",IC50,"[1]; DU-145, read-out: Cancer cell growth inhibitory ED50",1.8 µg/mL
same,MIC,[2]; [37],> 0.5 µg/mL
same,IC50,"[3]; P388, read-out: Cancer cell growth inhibitory ED50",0.22 µg/mL
same,MIC,[4]; [37],16 µg/mL
same,IC50,"[5]; NCI-H460, read-out: Cancer cell growth inhibitory ED50",2 µg/mL
same,MIC,[6]; [37],8 to 32 µg/mL
same,IC50,"[7]; SF-268, read-out: Cancer cell growth inhibitory ED50",1.4 µg/mL
same,MIC,[8]; [37],2 to 4 µg/mL
same,IC50,"[11]; KM-20L2, read-out: Cancer cell growth inhibitory ED50",1.7 µg/mL
same,IC50,"[12]; MCF7, read-out: Cancer cell growth inhibitory ED50",0.66 µg/mL
same,minimum inhibitory concentrations in the presence of human serum versus absence of serum,[26],identical or one 2-fold dilution lower
same,IC50,"[13]; BXPC-3, read-out: Cancer cell growth inhibitory ED50",1.6 µg/mL
same,MIC,[14]; [37],64 µg/mL
same,MIC,[18],> 64 µg/mL
same,MIC,[20]; [37],8 µg/mL
same,IC50,[21]; b62 series,37 ± 4 µM
same,MIC,[22]; [37],> 64 µg/mL
same,MIC,[23]; [37],32 to 64 µg/mL
same,MIC,[24]; [37],32 µg/mL
